Literature values in paper PMC5594493, “Antiproliferative factor (APF) binds specifically to sites within the cytoskeleton-associated protein 4 (CKAP4) extracellular domain” (BMC Biochemistry, 2017).

Columns and labels:
CKAP4 = details: ref [17], [18]; cited from earlier work
Excerpt: (§1) The effects that APF has on cells are remarkable and unique among the reported ligands for CKAP4.

HeLa cells = details: in vitro; background statement, no reference given; read-out: IC50, growth inhibition; cited from earlier work
Excerpt: as §1

bladder carcinoma cells = details: in vitro; background statement, no reference given; read-out: IC50, growth inhibition; cited from earlier work
Excerpt: as §1

[1] = system: normal bladder epithelial cells; details: in vitro; background statement, no reference given; read-out: IC50, growth inhibition; cited from earlier work
Excerpt: as §1

Neu5Acα2 − 3Galβ1 − 3GalNAcα-O-TVPAAVVVA [APF]
effect on CKAP4 localization (CKAP4): internalization, nuclear translocation | IC50 (HeLa cells): ~1 nM | IC50 (bladder carcinoma cells): ~1 nM | IC50 [1]: ~1 nM
